Laboratory results from patent US20240390471A1, “COMPOUNDS AND ADJUVANT FORMULATIONS USEFUL IN PNEUMOCOCCAL VACCINES” (Merck Sharp & Dohme LLC, priority 2023, published 2024).

Columns and labels:
[1] = test system: S. pneumoniae serotypes of PCV13; conditions: PCV13 plus 3M-052 compared to PCV13 alone; cited from earlier work
[2] = biological target: T1, human TLR7 (Homo sapiens, UniProt Q9NYK1); assay: Cell-based TLR 7/8 assay, HEK-Blue TLR7 cells (SEAP reporter); conditions: based on Compound concentration only; Compounds formulated as SNEs; read-out: huTLR7 EC50 (converted)
T1 construct: host or cells: HEK-Blue 293 cells expressing human TLR7
T1 sequence (Q9NYK1 27-1049): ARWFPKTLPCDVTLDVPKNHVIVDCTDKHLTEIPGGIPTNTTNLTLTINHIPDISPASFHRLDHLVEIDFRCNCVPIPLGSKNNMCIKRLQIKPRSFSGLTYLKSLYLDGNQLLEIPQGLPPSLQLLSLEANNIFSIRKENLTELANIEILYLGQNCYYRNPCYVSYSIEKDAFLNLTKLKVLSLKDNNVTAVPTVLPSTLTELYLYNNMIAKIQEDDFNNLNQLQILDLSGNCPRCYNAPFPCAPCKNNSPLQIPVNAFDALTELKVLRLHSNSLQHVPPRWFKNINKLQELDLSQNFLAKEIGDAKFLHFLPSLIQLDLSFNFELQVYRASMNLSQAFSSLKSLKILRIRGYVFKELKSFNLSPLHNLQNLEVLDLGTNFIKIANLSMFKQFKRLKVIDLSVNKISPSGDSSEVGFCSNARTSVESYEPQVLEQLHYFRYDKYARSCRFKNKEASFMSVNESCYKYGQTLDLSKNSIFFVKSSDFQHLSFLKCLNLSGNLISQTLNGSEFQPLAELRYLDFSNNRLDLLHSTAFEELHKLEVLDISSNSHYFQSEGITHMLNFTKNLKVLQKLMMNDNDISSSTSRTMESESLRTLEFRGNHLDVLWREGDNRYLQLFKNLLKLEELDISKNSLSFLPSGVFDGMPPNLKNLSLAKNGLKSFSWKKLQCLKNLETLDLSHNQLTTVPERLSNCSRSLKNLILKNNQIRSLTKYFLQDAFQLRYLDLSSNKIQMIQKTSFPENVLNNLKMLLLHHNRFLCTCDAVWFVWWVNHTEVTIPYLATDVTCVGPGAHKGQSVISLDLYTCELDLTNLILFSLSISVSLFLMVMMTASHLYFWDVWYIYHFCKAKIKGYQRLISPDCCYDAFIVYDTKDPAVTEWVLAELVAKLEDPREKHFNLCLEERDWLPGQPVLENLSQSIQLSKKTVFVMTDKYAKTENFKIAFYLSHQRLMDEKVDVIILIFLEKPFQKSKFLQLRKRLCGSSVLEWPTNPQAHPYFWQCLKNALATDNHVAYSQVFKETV
Experimental: (§1) HEK-Blue™ TLR7 and TLR8 cells (InvivoGen) were designed to assess the stimulation of TLR7 and TLR8 by monitoring the activation of NF-κB and AP-1. Compound B-1-SNE samples were diluted 1:2 across an 8-point titration in diluent buffer histidine/PS-20 in a sterile V-bottom plate. 20 μL of samples were transferred to corresponding wells of two flat bottom assay plates. Media was aspirated from HEK-Blue™ human TLR 7 and TLR 8 cells (T-75 flasks) and gently rinsed with pre-warmed (37° C.) DPBS for a total volume of 5 mL/flask. The DPBS was gently removed from the cells and cells were gently manually dislodged and resuspended in 2 mL of DPBS. Cell assay suspensions were then prepared at approximately 2.2×10^5 cells per mL of HEK-Blue™ detection medium (InvivoGen). 180 μL of cell suspension in detection medium was added to each well of the two flat bottom assay plates containing the diluted Compound B-1-SNE samples for a final dilution of sample equaling 1:10 (180 μL of cell suspension in detection medium and 20 μL of sample). The cells were then incubated at 37° C. in 5% CO2 for 20 hrs. The reporter gene, NF-Kb, induces the production of secreted embryonic alkaline phosphatase (SEAP) when stimulated and can be monitored using the vendor supplied SEAP detection kit. SEAP colorimetric changes were read at an absorbance of 640 nm using a SpectroMax Stakmax plate reader. […] EC50 values were calculated based on total Compound B-1-SNE concentration using GraphPad Prism Software and analyzed using agonist vs. response variable slope (four parameters) least squares fit.
(§2) Further to the description in Example 10, a cell-based activation system was used to assess activity of the Compound-formulated nanoemulsion systems, prepared as described in examples, supra. HEK-Blue™ TLR7 and TLR8 cells (InvivoGen) were designed to assess the stimulation of TLR7 and TLR8 by monitoring the activation of NF-κB and AP-1. Compound-SNE samples were diluted 1:2 across an 8-point titration in diluent buffer histidine/PS-20 in a sterile V-bottom plate. 20 μL of samples were transferred to corresponding wells of two flat bottom assay plates. Media was aspirated from HEK-Blue™ human TLR 7 and TLR 8 cells (T-75 flasks) and gently rinsed with pre-warmed (37° C.) DPBS for a total volume of 5 mL/flask. The DPBS was gently removed from the cells and cells were gently manually dislodged and resuspended in 2 mL of DPBS. Cell assay suspensions were then prepared at approximately 2.2×10^5 cells per mL of HEK-Blue™ detection medium (InvivoGen). 180 μL of cell suspension in detection medium was added to each well of the two flat bottom assay plates containing the diluted Compound-SNE samples for a final dilution of sample equaling 1:10 (180 μL of cell suspension in detection medium and 20 μL of sample). The cells were then incubated at 37° C. in 5% CO2 for 20 hrs. The reporter gene, NF-Kb, induces the production of secreted embryonic alkaline phosphatase (SLAP) when stimulated and can be monitored using the vendor supplied SLAP detection kit. SLAP colorimetric changes were read at an absorbance of 640 nm using a SpectroMax Stakmax plate reader. EC50s were calculated based on Compound concentration only, not total Compound-SNE concentration (Table 6) using GraphPad Prism Software and analyzed using agonist vs. response variable slope (four parameters) least squares fit.

[3] = biological target: T2, human TLR8 (Homo sapiens, UniProt Q9NR97); assay: Cell-based TLR 7/8 assay, HEK-Blue TLR8 cells (SEAP reporter); conditions: based on Compound concentration only; Compounds formulated as SNEs; read-out: huTLR8 EC50 (converted)
T2 construct: host or cells: HEK-Blue 293 cells expressing human TLR8
T2 sequence (Q9NR97 27-1041): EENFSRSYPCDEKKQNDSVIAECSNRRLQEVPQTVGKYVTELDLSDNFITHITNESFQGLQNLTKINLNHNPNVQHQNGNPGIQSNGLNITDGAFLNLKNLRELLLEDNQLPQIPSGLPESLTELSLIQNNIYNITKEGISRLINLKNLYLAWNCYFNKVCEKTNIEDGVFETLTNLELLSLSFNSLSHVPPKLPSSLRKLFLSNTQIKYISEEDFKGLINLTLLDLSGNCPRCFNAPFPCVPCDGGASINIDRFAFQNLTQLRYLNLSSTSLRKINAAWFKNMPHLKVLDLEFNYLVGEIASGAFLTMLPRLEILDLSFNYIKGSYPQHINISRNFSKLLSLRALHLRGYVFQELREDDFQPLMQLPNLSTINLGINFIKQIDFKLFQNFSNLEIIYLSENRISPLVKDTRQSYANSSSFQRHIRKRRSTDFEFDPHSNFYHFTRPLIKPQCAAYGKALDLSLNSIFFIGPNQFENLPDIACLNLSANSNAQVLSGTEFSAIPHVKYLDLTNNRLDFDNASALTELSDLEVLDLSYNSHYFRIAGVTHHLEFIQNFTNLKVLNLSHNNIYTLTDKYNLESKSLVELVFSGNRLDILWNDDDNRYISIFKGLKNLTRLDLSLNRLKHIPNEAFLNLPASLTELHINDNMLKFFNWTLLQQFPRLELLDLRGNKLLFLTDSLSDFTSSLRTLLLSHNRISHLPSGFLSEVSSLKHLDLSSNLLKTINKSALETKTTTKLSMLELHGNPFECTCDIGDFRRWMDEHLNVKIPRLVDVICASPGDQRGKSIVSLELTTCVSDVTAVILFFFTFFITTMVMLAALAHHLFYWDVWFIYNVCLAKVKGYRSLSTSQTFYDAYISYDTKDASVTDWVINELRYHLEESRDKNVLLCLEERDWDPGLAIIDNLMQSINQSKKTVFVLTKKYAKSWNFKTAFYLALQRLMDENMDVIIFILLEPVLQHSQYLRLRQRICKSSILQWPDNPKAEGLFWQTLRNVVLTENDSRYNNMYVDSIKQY
Experimental: as §1, §2

Row | EC50 [2] [nM] | EC50 [3] [nM] | SMILES | serotype specific antibody responses (binding titers and opsonophagocytic killing) [1]
1 | – | – | CCCCCCCCCCCCCCCCCC(=O)NCCCCOn1c(CCCC)nc2c(N)nc3ccccc3c21 [Compound 3M-052] | accelerated and enhanced serotype specific antibody responses
2 | 4950 | 1170 | CCCCCCCCCCCCCCCCCC(=O)NCCCCN(C)Cc1cc(OC)c(Cn2cc3nc(N)nc(NCCCC)c3n2)c(OC)c1 [Compound C-4, N-(4-((4-((5-amino-7-(butylamino)-2H-pyrazolo[4,3-d]pyrimidin-2-yl)methyl)-3,5-dimethoxybenzyl)(methyl)amino)butyl)stearamide] | –
3 | 208 | 306 | CCCCCCCCCCCCCC(=O)NCCCCC(=O)N1CCN(c2ccc(Cn3cc4nc(N)nc(NCCCC)c4n3)c(OC)c2)CC1 [Compound B-2, N-(5-(4-(4-((5-amino-7-(butylamino)-2H-pyrazolo[4,3-d]pyrimidin-2-yl)methyl)-3-methoxyphenyl)piperazin-1-yl)-5-oxopentyl)tetradecanamide] | –
